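Assay format: 96-well plates, 48-hour exposure. GI50 = concentration required for 50% inhibition of growth.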 The source made the active and inactive calls. Cut-off read from the data, not from the text of the source: active = GI50 up to about 1.1 µM and inactive = higher.
Columns and labels:
Assay in all cases: DTP human tumour cell line panel, 48 h
[1] = test system: A498
[2] = test system: HCT-15
[3] = test system: HOP-62
[4] = test system: M14
[5] = test system: OVCAR-5
[6] = test system: CAKI-1
[7] = test system: UACC-257
[8] = test system: LOX IMVI
[9] = test system: PC-3
[10] = test system: SNB-19
[11] = test system: RPMI-8226
[12] = test system: DU-145
[13] = test system: SK-OV-3
[14] = test system: MDA-MB-231
[15] = test system: NCI/ADR-RES
[16] = test system: EKVX
[17] = test system: BT-549
[18] = test system: SF-268
[19] = test system: SF-295
[20] = test system: COLO 205
[21] = test system: TK-10
[22] = test system: UO-31
[23] = test system: Hs-578T
[24] = test system: HCC 2998
[25] = test system: SK-MEL-28
[26] = test system: MCF7
[27] = test system: Malme-3M
[28] = test system: SK-MEL-5
[29] = test system: OVCAR-4
[30] = test system: NCI-H226
[31] = test system: SN12C
[32] = test system: MOLT-4
[33] = test system: K562
[34] = test system: MDA-MB-435
[35] = test system: HCT-116
[36] = test system: SNB-75
[37] = test system: HT-29
[38] = test system: NCI-H23
[39] = test system: HOP-92
[40] = test system: MDA-N
[41] = test system: IGROV-1
[42] = test system: SF-539
[43] = test system: A549
[44] = test system: NCI-H522
[45] = test system: CCRF-CEM
[46] = test system: ACHN
[47] = test system: U-251
[48] = test system: 786-0
[49] = test system: UACC-62
[50] = test system: T47D
[51] = test system: SK-MEL-2
[52] = test system: OVCAR-3
[53] = test system: NCI-H460
[54] = test system: KM12
[55] = test system: SW-620
[56] = test system: RXF 393
[57] = test system: OVCAR-8

C=C(C)C1CC2=C(O1)C(=O)c1cccc(O)c1C2=O (stereo not given)
GI50 [1]: 5.46 µM (inactive) | GI50 [2]: 2.05 µM | GI50 [3]: 1.57 µM (inactive) | GI50 [4]: 0.951 µM (active) | GI50 [5]: 1.57 µM (inactive) | GI50 [6]: 0.764 µM (active) | GI50 [7]: 0.271 µM (active) | GI50 [8]: 4.26 µM (inactive) | GI50 [9]: 1.69 µM (inactive) | GI50 [10]: 1.95 µM (inactive) | GI50 [11]: 0.265 µM (active) | GI50 [12]: 1.76 µM (inactive) | GI50 [13]: 1.51 µM (inactive) | GI50 [14]: 1.82 µM (inactive) | GI50 [15]: 1.05 µM (active) | GI50 [16]: 1.17 µM (inactive) | GI50 [17]: 0.406 µM (active) | GI50 [18]: 0.333 µM (active) | GI50 [19]: 1.36 µM (inactive) | GI50 [20]: 1.75 µM (inactive) | GI50 [21]: 2.5 µM (inactive) | GI50 [22]: 1.41 µM (inactive) | GI50 [23]: 1.16 µM (inactive) | GI50 [24]: 1.99 µM (inactive) | GI50 [25]: 1.7 µM (inactive) | GI50 [26]: 0.586 µM (active) | GI50 [27]: 1.08 µM (active) | GI50 [28]: 0.144 µM (active) | GI50 [29]: 0.327 µM (active) | GI50 [30]: 1.78 µM (inactive) | GI50 [31]: 1.21 µM (inactive) | GI50 [32]: 0.2 µM (active) | GI50 [33]: 0.0935 µM (active) | GI50 [34]: 0.129 µM (active) | GI50 [35]: 10.9 µM (inactive) | GI50 [36]: 2.29 µM (inactive) | GI50 [37]: 1.59 µM (inactive) | GI50 [38]: 0.244 µM (active) | GI50 [39]: 0.604 µM (active) | GI50 [40]: 0.064 µM (active) | GI50 [41]: 0.256 µM (active) | GI50 [42]: 0.671 µM (active) | GI50 [43]: 2.47 µM (inactive) | GI50 [44]: 0.378 µM (active) | GI50 [45]: 0.209 µM (active) | GI50 [46]: 1.72 µM (inactive) | GI50 [47]: 1.43 µM (inactive) | GI50 [48]: 9.12 µM (inactive) | GI50 [49]: 0.883 µM (active) | GI50 [50]: 1.23 µM (inactive) | GI50 [51]: 1.17 µM (inactive) | GI50 [52]: 0.214 µM (active) | GI50 [53]: 1.91 µM (inactive) | GI50 [54]: 1.69 µM (inactive) | GI50 [55]: 0.929 µM (active) | GI50 [56]: 1.04 µM (active)

CCN(CC)CCn1ncc2c(N)ncnc21
GI50 [1]: > 100 µM (inactive) | GI50 [2]: > 100 µM | GI50 [3]: > 100 µM (inactive) | GI50 [4]: > 100 µM (inactive) | GI50 [5]: > 100 µM (inactive) | GI50 [6]: > 100 µM (inactive) | GI50 [8]: > 100 µM (inactive) | GI50 [9]: > 100 µM (inactive) | GI50 [10]: > 100 µM (inactive) | GI50 [11]: > 100 µM (inactive) | GI50 [12]: > 100 µM (inactive) | GI50 [13]: > 100 µM (inactive) | GI50 [14]: > 100 µM (inactive) | GI50 [15]: > 100 µM (inactive) | GI50 [16]: > 100 µM (inactive) | GI50 [17]: > 100 µM (inactive) | GI50 [18]: > 100 µM (inactive) | GI50 [19]: > 100 µM (inactive) | GI50 [20]: > 100 µM (inactive) | GI50 [21]: > 100 µM (inactive) | GI50 [57]: > 100 µM (inactive) | GI50 [22]: > 100 µM (inactive) | GI50 [23]: > 100 µM (inactive) | GI50 [24]: > 100 µM (inactive) | GI50 [25]: > 100 µM (inactive) | GI50 [26]: > 100 µM (inactive) | GI50 [27]: > 100 µM (inactive) | GI50 [28]: > 100 µM (inactive) | GI50 [29]: > 100 µM (inactive) | GI50 [30]: > 100 µM (inactive) | GI50 [31]: > 100 µM (inactive) | GI50 [32]: > 100 µM (inactive) | GI50 [33]: > 100 µM (inactive) | GI50 [34]: > 100 µM (inactive) | GI50 [35]: > 100 µM (inactive) | GI50 [37]: > 100 µM (inactive) | GI50 [38]: > 100 µM (inactive) | GI50 [39]: > 100 µM (inactive) | GI50 [40]: > 100 µM (inactive) | GI50 [41]: > 100 µM (inactive) | GI50 [43]: > 100 µM (inactive) | GI50 [44]: > 100 µM (inactive) | GI50 [45]: 34.7 µM (inactive) | GI50 [46]: > 100 µM (inactive) | GI50 [47]: > 100 µM (inactive) | GI50 [48]: > 100 µM (inactive) | GI50 [49]: > 100 µM (inactive) | GI50 [50]: > 100 µM (inactive) | GI50 [51]: > 100 µM (inactive) | GI50 [52]: > 100 µM (inactive) | GI50 [53]: > 100 µM (inactive) | GI50 [54]: > 100 µM (inactive) | GI50 [55]: > 100 µM (inactive) | GI50 [56]: > 100 µM (inactive)

— ChEMBL document CHEMBL1201862, “PubChem BioAssay data set” (2004)
